Source: patent US7718768B2, “Biologically active peptide [sequence]” (CMS Peptides Patent Holding Company Limited, priority 2001, dated 2010)
Marks after values point to notes of the source that are not given here. No end group written: not given here.

Experiments:
NK cell = NK cell activity in mice with ascitic fluid type liver cancer H22; assay type: in vivo, BALB/c mice
Protocol: Healthy BALB/c mice were randomized into peptide group, rmIFN-γ group, rhIL-2 group, and saline group, 15 mice per group, and prepared into H22 carrying mice model as described in section Method 3. After implantation of the cancer cells, the test substances were administered for 15 days, the mice were killed by cervical dislocation. The spleen was isolated aseptically and manually dispersed in cold D-Hank's solution using an injection needle. The dispersed cell suspension was further sieved through a 100-gauge 150 μm diameter stainless steel sieve. After centrifugation at 200 g for 10 minutes, the supernatant was discarded. The cell pellet was re-suspended in 10 volume of Tris-NH4Cl buffer and then kept standing still for 10 minutes at room temperature. The suspended cells were collected by centrifugation at 150 g for 10 minutes. The cells were washed 2-4 times with cold D-Hank's solution by re-suspending and collecting by centrifugation with condition as described above. The washed cells were then diluted to the desired cell densities by RPMI-1640 culture medium, containing 10% fetal bovine serum.
Mice spleen cells were prepared to 4×10^6/ml as described in section 4.1 above. Target cells YAC-1 were brought to log phase and adjusted to 1×10^5/ml. Using a 96 wells cell culture plate, 100 μl mouse spleen cells and 100 μl culture medium were added to the control well containing only the spleen cells; 100 μl target cells and 100 μl culture medium were added to the control well containing only target cells; 100 μl mouse spleen cells and 100 μl target cells were added to the NK activity assay well. Three parallel sets of the above were prepared per mouse. After that, the 96 wells cell culture plates were incubated for 4 hrs at 37° C., 5% CO2.
Samples were centrifuged at 150 g for 10 minutes to collect the cells. The supernatant was discarded and 50 μl/well MTT of 1 mg/ml was added. The reaction-mixture was then shaken for 2 minutes, and incubated at 37° C., 5% CO2 for 4 hours. The supernatant was discarded after centrifugation at 150 g for 10 minutes. 120 μl 40 mM HCl-2-propanol was added and shaken for 3 minutes. An ELISA reader was used to obtain OD570nm of each well referenced at 630 nm.
The NK cell activity index of each mouse was obtained by first deriving the average OD of the three parallel wells of each combination, then applying this average OD to the following formula: NK cell activity index=[1−(average OD of spleen and target cell well−average OD of spleen cell only well)÷(average OD of target cell only well)]×100% 5. The Effect of Peptides on the Survival of DBA/2 Mice with Transplanted L1210 Leukemia

B16 melanoma cells = experiment: lung metastasis foci of inoculated B16 melanoma cells, postmortem examination; assay type: in vivo, C57BL/6 mice
Protocol: Intraperitoneal injection, once per day. […] Treatment of all groups with testing substance lasted for 30 days or until the animal died unless otherwise specified. […] The cell concentration was adjusted to 1×10^5 per ml with Hank's solution and 0.1 ml of the cell suspension was injected via the tail vein into the testing mice to generate the B16 melanoma bearing animal model. Treatment with test substance started as described in section Method 1. […] Postmortum Examination of the Animals was Performed. The Pathological Changes were Recorded, and the Numbers of Melanoma Lung Metastasis Foci were Counted. Results 1. The Effect of Peptide on the Cellular Phagocytosis in BALB/c Mice with Transplanted S180 Sarcoma (Method 2.1)

[1] = system: ascitic fluid type liver cancer H22; experiment: survival of mice with transplanted ascitic fluid type liver cancer H22; assay type: in vivo, BALB/c mice; details: for Survival index: versus saline group
Protocol: (§1) Intraperitoneal injection, once per day. […] Treatment of all groups with testing substance lasted for 30 days or until the animal died unless otherwise specified.
Stock H22 cells were incubated in DMEM/F12 medium supplemented with 10% fetal bovine serum, 37° C./5% CO2 for 72 hrs, then washed 3-4 times with Hank's solution at room temperature. Adjust cell concentration to 1-2×10^9 per liter with Hank's solution. 0.2 ml of the cell suspension was implanted to the abdominal cavity of several BALB/c mice for 6-8 days. The mice were killed by cervical vertebra dislocation. Ascitic fluid of the mice was collected asceptically and the cell concentration adjusted to 1×10^6 per ml with Hank's solution. 0.2 ml of the cell suspension was implanted into the abdominal cavity of healthy mice to generate the H22 carrying mouse model for ascitic fluid type liver cancer. Administration of test substance started as described in section Method 1. Survival data of the mice was recorded. If the animal survived longer than the experiment, the survival days was recorded as the duration of the experiment. Mean survival day was obtained by the Kaplan-meier method in the Survival option of the SPSS software. The survival index was calculated according to the following formula: Survival index(mean survival days in treatment group−mean survival days of control group)÷mean survival days of control group×100% 4. The Effect of Peptides on the Cellular Immunity of BALB/c Mice with Transplanted Ascitic Fluid Type Liver Cancer H22 4.1 Preparation of Spleen Cell Suspension^[1,4]

mononuclear phagocyte = experiment: phagocytosis index in mice with transplanted S180 sarcoma; assay type: in vivo, BALB/c mice
Protocol: as §1
(§2) Stock S180 sarcoma cells were incubated in DMEM/F12 medium supplemented with 10% fetal bovine serum, 37° C., 5% CO2 for 72 hrs, then washed 3-4 times with Hank's solution at room temperature. Adjust the cell concentration to 1-2×10^9 per liter with Hank's solution. […] The mice were killed by cervical vertebra dislocation. Vigorously growing and non-disrupted tumor masses were harvested and washed clean with sterile saline. The tissue was dispersed in saline to a homogenous cell suspension, in a ratio of 1 g tissue to 4 ml saline. The sarcoma bearing mice model was prepared with an injection of 0.2 ml cell suspension through the armpit. Administration of test substance treatment started as described in section Method 1.
2.1 The effect of peptides on the phagocytotic function of mononuclear phagocyte in mice with S180 sarcoma was analyzed by injecting mice from the tail vein with 0.1 ml/10 g body weight of Indian ink (1:5 dilution with normal saline) on the second day after the last test substance administration. At one minute and five minutes after the injection, 20 μl blood was obtained from the eye canthus with heparinised tubing. The blood was mixed with 2 ml 0.1% w/v Na2CO3 and then OD680nm obtained. The outline clear index K was calculated by the following formula: K=(lgA1−lgA2)÷(t2−t1)
(§3) After the phagocytosis index study, the mice were killed by cervical vertebra dislocation. The liver, spleen, and cancer tissue were dissected, blotted dry, and weighed.
1. The Phagocytosis Index α was Calculated as Below: α=(^3√K)×(W÷WLS)

S180 sarcoma cells = experiment: growth of transplanted S180 sarcoma; assay type: in vivo, BALB/c mice; details: for Tumor inhibition index: versus saline group
Protocol: as §1, §2, §3
2.2 The Tumor Growth Inhibition Index was Calculated According to the Following Formula: Tumor growth inhibition index=(mean tumor weight of control group−mean tumor weight of treatment group)÷mean tumor weight of control group 3.

[2] = 3 × 10^5 IU/kg i.p. once per day

In the case of FNFVPP [CMS003], the NK activity index (NK cell; 500 μg/kg i.p. once per day) is reported as 37.9 ± 14.5*^^$ %.

In the case of IGMESAGIHETTY [CMS016], the “B16 metastatic foci in the lung, postmortem examination” value (“B16 metastatic foci in the lung” for short) (B16 melanoma cells; 5 μg/kg/day i.p.) is reported as “did not show any sign of existence of B16 metastatic foci in the lung” and the “B16 metastatic foci in the lung” value (B16 melanoma cells; 500 μg/kg/day i.p.) is reported as “did not show any sign of existence of B16 metastatic foci in the lung”.

In the case of KAVGHLDDLPGAL [CMS008], the “B16 metastatic foci in the lung” value (B16 melanoma cells; 0.5 μg/kg/day i.p.) is reported as “did not show any sign of existence of B16 metastatic foci in the lung”, the “B16 metastatic foci in the lung” value (B16 melanoma cells; 5 μg/kg/day i.p.) is reported as “did not show any sign of existence of B16 metastatic foci in the lung” and the “B16 metastatic foci in the lung” value (B16 melanoma cells; 50 μg/kg/day i.p.) is reported as “did not show any sign of existence of B16 metastatic foci in the lung”. For the same molecule, the Survival days ([1]; 5 μg/kg i.p. once per day) was 50.7 ± 20.9*^& days and the Survival index ([1]; 5 μg/kg i.p. once per day) was 67.8%.

PTTKTYFPHF [CMS001] was tested, and the Phagocytosis index (mononuclear phagocyte; 5 μg/kg i.p. once per day) was 6.67 ± 0.43*^ and the Phagocytosis index (mononuclear phagocyte; 50 μg/kg i.p. once per day) was 6.24 ± 0.33*^.

With “Phe Glu Glu Glu (FEEE; listed as Sus scrofa) [CMS032]” the NK activity index (NK cell; 5 μg/kg i.p. once per day) was 52.6 ± 12.5*^^$& %, the NK activity index (NK cell; 50 μg/kg i.p. once per day) was 41.0 ± 18.7*^^$& % and the Survival days ([1]; 0.5 μg/kg i.p. once per day) was 42.8 ± 12.2*^^&$ days. It also gave a Survival index ([1]; 0.5 μg/kg i.p. once per day) of 63.3%.

“Phe Val Asn Asp (FVND; listed as Sus scrofa) [CMS035]” gave a Tumor weight (S180 sarcoma cells; 5 μg/kg i.p. once per day) of 0.71 ± 0.37 g and a Tumor inhibition index (S180 sarcoma cells; 5 μg/kg i.p. once per day) of 44.6%.

In the case of “Pro Glu Asn Phe (PENF; listed as Sus scrofa) [CMS034]”, the NK activity index (NK cell; 50 μg/kg i.p. once per day) is reported as 57.3 ± 17.9*^^$& %, the Phagocytosis index (mononuclear phagocyte; 0.5 μg/kg i.p. once per day) is reported as 6.35 ± 1.02 and the Phagocytosis index (mononuclear phagocyte; 5 μg/kg i.p. once per day) is reported as 6.20 ± 0.44*^. The Tumor weight (S180 sarcoma cells; 0.5 μg/kg i.p. once per day) was 0.83 ± 0.48 g and the Tumor inhibition index (S180 sarcoma cells; 0.5 μg/kg i.p. once per day) was 35.9%.

In the case of RVAPEEHPTL [CMS011], the Survival days ([1]; 5 μg/kg i.p. once per day) is reported as 36.4 ± 22.2*^& days and the Survival index ([1]; 5 μg/kg i.p. once per day) is reported as 60.2%.

In the case of “Tyr Ser Leu (YSL; listed as Sus scrofa) [CMS024]”, the NK activity index (NK cell; 0.5 μg/kg i.p. once per day) is reported as 39.3 ± 18.7*^$ %, the NK activity index (NK cell; 5 μg/kg i.p. once per day) is reported as 34.9 ± 12.1*^^$ % and the NK activity index (NK cell; 50 μg/kg i.p. once per day) is reported as 43.6 ± 13.9*^^$& %. The Survival days ([1]; 0.5 μg/kg i.p. once per day) was 46.4 ± 14.8*^^&$ days, the Survival index ([1]; 0.5 μg/kg i.p. once per day) was 76.9% and the “postmortem examination of the long-surviving mice” value ([1]; 0.5 μg/kg/day) was “did not show sign of tumor establishment”. For the same molecule, the “share of mice surviving longer than 90 days” value ([1]; 0.5 μg/kg/day, n=6, two months after the experiment ended) was “more than 30%”, the Survival days ([1]; 5 μg/kg i.p. once per day) was 40.6 ± 14.6*^&$ days and the Survival index ([1]; 5 μg/kg i.p. once per day) was 54.8%. The Survival days ([1]; 50 μg/kg i.p. once per day) was 36.3 ± 12.7*^&$ days and the Survival index ([1]; 50 μg/kg i.p. once per day) was 38.4%.

VAPEEHPTLLTEAPLNPK [CMS010] showed a Tumor weight (S180 sarcoma cells; 500 μg/kg i.p. once per day) of 0.67 ± 0.35 g and a Tumor inhibition index (S180 sarcoma cells; 500 μg/kg i.p. once per day) of 48.4%.

B1: IFN-γ: recombinant mouse interferon-γ, Beijing Biotech Inc.; positive control immunostimulant (protein, UniProt P01580 23-155, looked up)
Interferon gamma: HGTVIESLESLNNYFNSSGIDVEEKSLFLDIWRNWQKDGDMKILQSQIISFYLRLFEVLKDNQAISNNISVIESHLITTFFSNSKAKKDAFMSIAKFEVNNPQVQRQAFNELIRVVHQLLPESSLRKRKRSRC
With B1 the NK activity index (NK cell; [2]) was 20.9 ± 3.3%, the Phagocytosis index (mononuclear phagocyte; [2]) was 5.45 ± 0.71 and the Tumor weight (S180 sarcoma cells; [2]) was 0.96 ± 0.45 g. The Tumor inhibition index (S180 sarcoma cells; [2]) was 25.3%, the Survival days [1, 2] was 27.8 ± 7.5 days and the Survival index [1, 2] was 6.1%.
